Values quoted from earlier work, collected in patent US12151062B2, “Compositions and devices to administer pharmaceutical compositions nasally” (BOARD OF REGENTS, THE UNIVERSITY OF TEXAS SYSTEM, priority 2016, dated 2024).
Like-named read-outs stand apart in the source and are kept apart here.

Experiments:
[1] = for DTE relative to nasal solution alone: mucoadhesive microemulsion i.n.
[2] = thermoreversible gel with chitosan and glycerophosphate
[3] = system: brain tumor; details: mucoadhesive solution i.n.; rats pre-dosed with acetazolamide
[4] = PLGA nanoparticles
[5] = not given; remark: listed apart in the source
[6] = thermosensitive gel i.n. compared to nasal solution in normal saline; rabbits
[7] = mice
[8] = system: P3 component of the event-related potentials; details: human subjects
[9] = not given; remark: listed apart in the source
[10] = nasal administration with vasoconstrictor phenylephrine

O=c1[nH]cc(F)c(=O)[nH]1 [5-FU]
CSF levels with vs without pre-administration of acetazolamide ([1]; nasal delivery, rats): significantly higher CSF levels
increased brain uptake compared to i.v. ([1]; solution i.n., rats pre-dosed with acetazolamide): 104%

CC(C)C[C@H]1C(=O)N2CCC[C@H]2[C@]2(O)O[C@](NC(=O)[C@@H]3C=C4c5cccc6[nH]c(Br)c(c56)C[C@H]4N(C)C3)(C(C)C)C(=O)N12 [Bromocriptine]
brain AUCs compared to intravenous administration of the nanoparticles (mouse, in vivo): over two-fold greater
brain and plasma AUC values (mouse, in vivo): higher

NC(=O)N1c2ccccc2C=Cc2ccccc21 [Carbamazepine]
brain levels in the intranasal group ([1]; even at early time points, vs intravenous solution): unable to detect significantly higher brain levels
brain AUC-to-plasma AUC ratio compared to intravenous therapy ([1]; hypromellose and Carbopol 974P gel i.n.): 4.31 times
systemic bioavailability ([1]; intranasal formulation compared to intravenous carbamazepine solution): 100%
DTE (thermoreversible gel i.n., mice): DTE - 0.98

COc1cc(/C=C/C(=O)CC(=O)/C=C/c2ccc(O)c(OC)c2)ccc1O [Curcumin]
brain AUC compared to curcumin injection ([1]; in situ gelling microemulsion i.n.): three times

CN(C)CCC=C1c2ccccc2COc2ccccc21 [Doxepin]
duration of immobility, forced swim test [2]: no significant difference

CNCC[C@H](Oc1cccc2ccccc12)c1cccs1 [Duloxetine]
brain concentrations compared to intravenous administration of duloxetine solution ([1]; lipid nanocarrier i.n.): about eight times higher
DTE ([1]; lipid nanocarrier i.n., rats): 757.14%
DTE ([1]; lipid nanocarrier i.n., rats, listed as duloxetine): 757.14%
DTE ([1]; solution i.n., rats): to 287.34%
DTE ([1]; solution i.n., rats, listed as duloxetine): 287.34%

C[C@]12CC[C@@H]3c4ccc(O)cc4CC[C@H]3[C@@H]1CC[C@@H]2O [Estradiol]
AUCCSF/AUCplasma ([1]; cyclodextrin formulation i.n., rats): 1.60
AUCCSF/AUCplasma ([1]; i.v., rats): 0.61 from

CN(Cc1cnc2nc(N)nc(N)c2n1)c1ccc(C(=O)N[C@@H](CCC(=O)O)C(=O)O)cc1 [Methotrexate]
reduction in brain tumor weight [3]: 75%
increase in uptake compared to i.n. without acetazolamide ([1]; mucoadhesive solution i.n., rats pre-dosed with acetazolamide): 195%
CSF AUC after nasal administration compared to intravenous administration ([1]; rat, in vivo, iv): greater than 13 fold
DTE ([1]; solution i.n., rats): DTE- 21.7%

COCCOC(=O)C1=C(C)NC(C)=C(C(=O)OC(C)C)C1c1cccc([N+](=O)[O-])c1 (stereo not drawn) [Nimodipine]
AUC in olfactory bulb after i.n. compared with i.v. treatment ([1]; microemulsion, rats): Higher AUC
AUC in rest of brain after i.n. compared with i.v. treatment ([1]; microemulsion, rats): lower AUC

Cc1cc2c(s1)Nc1ccccc1N=C2N1CCN(C)CC1 [Olanzapine]
DTE ([1]; i.n. solution, rats): to 550%
DTE ([1]; mucoadhesive nanoemulsion i.n., rats): DTE-890%
DTE ([1]; nanomicellar carrier i.n., rats): 520.26%
diffusion through sheep nasal mucosa, ex vivo [4]: slower

Cc1nc2n(c(=O)c1CCN1CCC(c3noc4cc(F)ccc34)CC1)CCCC2O (stereo not drawn) [Paliperidone]
brain AUCs compared to intravenous administration of the microemulsion ([1]; intranasal mucoadhesive microemulsion, rats): 2.43 times
DTE ([1]; mucoadhesive microemulsion (polycarbophil) i.n., rats): 320.69%;
DTE ([1]; mucoadhesive microemulsion (polycarbophil) i.n., rats, listed as paliperidone): 320.69%
DTE relative to nasal solution alone ([1]; rats): 1.74-fold
DTE relative to nasal solution alone ([1]; rats, listed as paliperidone): 1.74 fold

Cc1nc2ccc(CN(C)c3ccc(C(=O)N[C@@H](CCC(=O)O)C(=O)O)s3)cc2c(=O)[nH]1 [Raltitrexed]
log P [5]: −0.98
increase in the AUC after intranasal use compared to intravenous use ([1]; depending on the section of brain, rats): 54-121 fold
DTE for Cerebrum ([1]; solution (PBS pH 8) i.n., rats): 120
DTE for Olfactory Bulb ([1]; solution (PBS pH 8) i.n., rats): 127

C#CCN[C@@H]1CCc2ccccc21 [Rasagiline]
brain uptake from gel formulations [6]: significantly higher brain uptake

Cc1nc2n(c(=O)c1CCN1CCC(c3noc4cc(F)ccc34)CC1)CCCC2 [Risperidone]
locomotor activity ([7]; any of the tested formulations): significantly reduced
locomotor activity compared to nanoemulsion given intravenously ([7]; nanoemulsion and mucoadhesive nanoemulsion given intranasally): significant reduction
plasma AUC after intranasal administration vs intravenous (SLNs): lower

CCCN(CCC)CCc1cccc2c1CC(=O)N2 [Ropinirole]
DTE ([1]; temperature sensitive in situ gel with chitosan and HPMC i.n., rats): DTE-10.4

Nc1c2c(nc3ccccc13)CCCC2 [Tacrine]
direct transport efficiency (DTE) (mouse, in vivo): 207.23

CN(C)CCc1c[nH]c2ccc(C[C@H]3COC(=O)N3)cc12 [Zolmitriptan]
brain concentrations 30 minutes after administration ([1]; micellar formulation i.n., rats): about fivefold higher
brain concentrations, 30 min up to 120 min ([1]; micellar nanocarrier i.n., rats): significantly higher brain concentrations up to 120 minutes

NC(=O)CC[C@@H]1NC(=O)[C@H](Cc2ccccc2)NC(=O)[C@H](Cc2ccc(O)cc2)NC(=O)[C@@H](N)CSSC[C@@H](C(=O)N2CCC[C@H]2C(=O)N[C@@H](CCCN=C(N)N)C(=O)NCC(N)=O)NC(=O)[C@H](CC(N)=O)NC1=O [arginine vasopressin]
P3 component of event-related potentials ([8]; after intranasal administration): significant increase
plasma concentrations after intravenous administration compared to intranasal use [8]: higher
P3 component of event-related potentials ([8]; intravenous administration, compared to placebo): did not show significant differences

O=c1ccc2ccccc2o1 [coumarin]
brain concentrations compared to unmodified PEG-PLA nanoparticles i.n. ([9]; wheat germ agglutinin conjugated PEG-PLA nanoparticles i.n.): two-fold increase

NCCc1ccc(O)c(O)c1 [dopamine]
brain concentrations compared to nerve growth factor dosed at the same concentration ([1]; intranasal): fivefold higher

GDF-5: growth differentiation factor 5
midbrain concentrations compared to acidic solution ([1]; rat, in vivo): Significantly higher midbrain concentrations compared to acidic solution

L-Tyr-D Arg
amount delivered to the olfactory bulb [9, 10]: significantly increased
amount in the trigeminal nerve [9, 10]: decreased amount
amount of drug absorbed into the systemic circulation [9, 10]: significantly decreased
decrease in whole brain concentrations [9, 10]: about 50%

hypocretin-1 (QPLPDCCRQKTCSCRLYELLHGAGNHAAGILTL; Orexin-A; UniProt O43612 34-66, looked up)
amount delivered to the olfactory bulb ([9]; in vivo): significantly increased
amount in the trigeminal nerve ([9]; in vivo): decreased amount
amount of drug absorbed into the systemic circulation ([9]; in vivo): significantly decreased
decrease in whole brain concentrations ([9]; in vivo): about 50%

vasoactive intestinal peptide
brain levels compared to solution given intranasally ([9]; in vivo): 5.6-7.7 fold
brain levels compared to unmodified nanoparticles ([9]; in vivo): higher brain levels
